Tested on: T1, PIM-1 or PIM-2
T1 construct: fused on or other part: C-terminal histidine tag (PIM-1 enzyme); N-terminal histidine tag (PIM-2 enzyme)
Assay: PIM-1 / PIM-2 biochemical assay (ADP Hunter assay kit)
Parameters: species or system human
Conditions: tested in either the PIM-1 or the PIM-2 biochemical assay (as appropriate); ATP 100 μM
Description: The biochemical assay to measure PIM-1 activity relies on the ADP Hunter assay kit (DiscoveRx Corp., Cat. # 90-0077), that determines the amount of ADP as direct product of the kinase enzyme activity.
The enzyme has been expressed and purified in-house as a recombinant human protein with a C-terminal histidine tag. The protein is active and stable.
(§1) Assay conditions were as indicated by the kit manufacturers with the following adaptations for the kinase activity step: • Kinase assay buffer and assay volume stay as recommended (15 mM HEPES, pH 7.4, 20 mM NaCl, 1 mM EGTA, 0.02% Tween 20, 10 mM MgCl2 and 0.1 mg/ml bovine γ-globulins/75 μl assay volume) • Incubation time and temperature: 60 min at 30° C. • PIM-1 concentration: 50 pg/μl • ATP concentration: 100 μM • PIM-1 substrate peptide: PIMtide (ARKRRRHPSGPPTA) • Peptide concentration: 60 μM • Positive control for kinase activity inhibition: 1-10 μM Staurosporine • DMSO concentration have to stay below 2% during the kinase reaction
Assays were performed in either 96 or 384-well plates. The final outcome of the coupled reactions provided by the kit is the release of the fluorescent product Resorufin and has been measured with a multilabel HTS counter VICTOR V (PerkinElmer) using an excitation filter at 544 nm and an emission filter at 580 nm.
The biochemical assay to measure PIM-2 activity relies on the ADP Hunter assay kit (DiscoveRx Corp., Cat. # 90-0077), that determines the amount of ADP as direct product of the kinase enzyme activity.
The enzyme has been expressed and purified in-house as a recombinant human protein with a N-terminal histidine tag. The protein is active and stable.
as §1, with “mg/ml bovine γ-globulins/20 μl assay” for “mg/ml bovine γ-globulins/75 μl assay”, “and temperature: 30 min at” for “and temperature: 60 min at”, “C. • PIM-2 concentration: 350” for “C. • PIM-1 concentration: 50”, “PIM-2 concentration: 350 pg/μl •” for “PIM-1 concentration: 50 pg/μl •”, “Peptide concentration: 100 μM •” for “Peptide concentration: 60 μM •”

Row | IC50 | SMILES
1 | 180 nM | O=C(Nc1ccccc1)c1cnc2ccc(N3Cc4ccccc4C3)nn12 [Example 44, 6-(1,3-Dihydro-isoindol-2-yl)-imidazo[1,2-b]pyridazine-3-carboxylic acid phenylamide]
2 | 490 nM | O=C(Nc1ccccc1)c1cnc2ccc(-c3ccccc3)nn12 [Example 45, 6-Phenyl-imidazo[1,2-b]pyridazine-3-carboxylic acid phenylamide]
3 | 380 nM | COc1ccc(-c2ccc3ncc(C(=O)Nc4ccccc4)n3n2)cc1 [Example 46, 6-(4-Methoxy-phenyl)-imidazo[1,2-b]pyridazine-3-carboxylic acid phenyl-amide]
4 | 470 nM | O=C(Nc1ccccc1)c1cnc2ccc(-c3ccoc3)nn12 [Example 47, 6-Furan-3-yl-imidazo[1,2-b]pyridazine-3-carboxylic acid phenylamide]
5 | 33000 nM | Clc1ccc(CNc2ccc3ncc(CN4CCOCC4)n3n2)cc1Cl [Example 53, (3,4-Dichloro-benzyl)-(3-morpholin-4-ylmethyl-imidazo[1,2-b]pyridazin-6-yl)-amine]
6 | 70 nM | Cc1cc(NCc2ccc(Cl)c(Cl)c2)nn2c(C(=O)Nc3ccccc3)cnc12 [Example 54, 6-(3,4-Dichloro-benzylamino)-8-methyl-imidazo[1,2-b]pyridazine-3-carboxylic acid phenylamide]
7 | 70 nM | Cc1cc2ncc(C(=O)Nc3ccccc3)n2nc1NCc1ccc(Cl)c(Cl)c1 [Example 55, 6-(3,4-Dichloro-benzylamino)-7-methyl-imidazo[1,2-b]pyridazine-3-carboxylic acid phenylamide]
8 | 300 nM | Cc1cc2ncc(C(=O)Nc3ccccc3)n2nc1NCc1ccco1 [Example 58, 6-[(Furan-2-ylmethyl)-amino]-7-methyl-imidazo[1,2-b]pyridazine-3-carboxylic acid phenylamide]
9 | 60 nM | Cc1ccc(CNc2nn3c(C(=O)Nc4ccccc4)cnc3cc2C)cc1F [Example 60, 6-(3-Fluoro-4-methyl-benzylamino)-7-methyl-imidazo[1,2-b]pyridazine-3-carboxylic acid phenylamide]
10 | 60 nM | Cc1cc2ncc(C(=O)Nc3ccccc3)n2nc1NCc1cccc(F)c1 [Example 61, 6-(3-Fluoro-benzylamino)-7-methyl-imidazo[1,2-b]pyridazine-3-carboxylic acid phenylamide]
11 | 160 nM | CCOC(=O)c1cccc(NC(=O)c2cnc3c(C)cc(NCc4ccc(OC)cc4)nn23)c1 [Example 64, 3-{[6-(4-Methoxy-benzylamino)-8-methyl-imidazo[1,2-b]pyridazine-3-carbonyl]-amino}-benzoic acid ethyl ester]
12 | 19300 nM | COc1ccc(CNc2cc(C)c3ncc(C(=O)Nc4cccc(C(=O)O)c4)n3n2)cc1 [Example 65, 3-{[6-(4-Methoxy-benzylamino)-8-methyl-imidazo[1,2-b]pyridazine-3-carbonyl]-amino}-benzoic acid]
13 | 3130 nM | CNC(=O)c1cccc(NC(=O)c2cnc3c(C)cc(NCc4ccc(OC)cc4)nn23)c1 [Example 66, 6-(4-Methoxy-benzylamino)-8-methyl-imidazo[1,2-b]pyridazine-3-carboxylic acid (3-methylcarbamoyl-phenyl)-amide]
14 | 80 nM | O=C(Nc1ccccc1)c1cnc2cc(C3CCCC3)c(NCc3ccc(F)cc3)nn12 [Example 68, 7-Cyclopentyl-6-(4-fluoro-benzylamino)-imidazo[1,2-b]pyridazine-3-carboxylic acid phenylamide]
15 | 190 nM | COc1ccc(CNc2nn3c(C(=O)Nc4ccccc4)cnc3cc2C2CCCC2)cc1 [Example 69, 7-Cyclopentyl-6-(4-methoxy-benzylamino)-imidazo[1,2-b]pyridazine-3-carboxylic acid phenylamide]

The remaining lines, values behind:

Row | SMILES | IC50
16 | COc1ccc(NC(=O)c2cnc3ccc(NCc4ccc(F)cc4)nn23)cc1 [Example 11, 6-(4-Fluoro-benzylamino)-imidazo[1,2-b]pyridazine-3-carboxylic acid (4-methoxy-phenyl)-amide] | 80 nM
17 | COc1ccc(NC(=O)c2cnc3ccc(NCc4ccco4)nn23)cc1OC [Example 15, 6-[(Furan-2-ylmethyl)-amino]-imidazo[1,2-b]pyridazine-3-carboxylic acid (3,4-dimethoxy-phenyl)-amide] | 4030 nM
18 | O=C(Nc1ccc2[nH]ccc2c1)c1cnc2ccc(NCc3ccc(Cl)c(Cl)c3)nn12 [Example 17, 6-(3,4-Dichloro-benzylamino)-imidazo[1,2-b]pyridazine-3-carboxylic acid (1H-indol-5-yl)-amide] | 430 nM
19 | O=C(Nc1ccccc1)c1cnc2ccc(NCc3ccc(Cl)c(Cl)c3)nn12 [Example 18, 6-(3,4-Dichloro-benzylamino)-imidazo[1,2-b]pyridazine-3-carboxylic acid phenyl-amide] | 60 nM
20 | COCCNC(=O)c1cnc2ccc(NCc3ccc(Cl)c(Cl)c3)nn12 [Example 19, 6-(3,4-Dichloro-benzylamino)-imidazo[1,2-b]pyridazine-3-carboxylic acid (2-methoxy-ethyl)-amide] | 4660 nM
21 | CC(=O)c1cccc(NC(=O)c2cnc3ccc(NCc4ccc(Cl)c(Cl)c4)nn23)c1 [Example 22, 6-(3,4-Dichloro-benzylamino)-imidazo[1,2-b]pyridazine-3-carboxylic acid (3-acetylphenyl)amide] | 33000 nM
22 | O=C(Nc1cccnc1)c1cnc2ccc(NCc3ccc(Cl)c(Cl)c3)nn12 [Example 23, 6-(3,4-Dichloro-benzylamino)-imidazo[1,2-b]pyridazine-3-carboxylic acid pyridin-3-yl-amide] | 130 nM
23 | CCNC(=O)c1cnc2ccc(NCc3ccc(Cl)c(Cl)c3)nn12 [Example 25, 6-(3,4-Dichloro-benzylamino)-imidazo[1,2-b]pyridazine-3-carboxylic acid ethylamide] | 2200 nM
24 | COc1ccc(NC(=O)c2cnc3ccc(NCc4ccc(S(N)(=O)=O)cc4)nn23)cn1 [Example 27] | 1140 nM
25 | O=C(O)c1ccc(NC(=O)c2cnc3ccc(NCc4ccc(Cl)c(Cl)c4)nn23)cc1 [Example 29, 4-{[6-(3,4-Dichloro-benzylamino)-imidazo[1,2-b]pyridazine-3-carbonyl]-amino}-benzoic acid] | 260 nM
26 | COc1ccc(CNc2ccc3ncc(C(=O)Nc4ccc(C(=O)O)cc4)n3n2)cc1 [Example 30] | 380 nM
27 | COc1ccc(CNc2ccc3ncc(C(=O)Nc4cccc(C(=O)O)c4)n3n2)cc1 [Example 31, 3-{[6-(4-Methoxy-benzylamino)-imidazo[1,2-b]pyridazine-3-carbonyl]-amino}-benzoic acid] | 7380 nM
28 | O=C(Nc1ccc(O)cc1)c1cnc2ccc(NCc3ccc(F)cc3)nn12 [Example 32, 6-(4-Fluoro-benzylamino)-imidazo[1,2-b]pyridazine-3-carboxylic acid (4-hydroxy-phenyl)-amide] | 70 nM
29 | O=C(Nc1ccccc1)c1cnc2ccc(OCc3ccccc3)nn12 [Example 34, 6-Benzyloxy-imidazo[1,2-b]pyridazine-3-carboxylic acid phenylamide] | 11000 nM
30 | O=C(Nc1ccccc1)c1cnc2ccc(Oc3ccccc3)nn12 [Example 35, 6-Phenoxy-imidazo[1,2-b]pyridazine-3-carboxylic acid phenylamide] | 120 nM
31 | O=C(Nc1ccccc1)c1cnc2ccc(Oc3ccc(F)cc3)nn12 [Example 36] | 2260 nM
32 | O=C(Nc1ccccc1)c1cnc2ccc(-n3cccc3)nn12 [Example 37, 6-Pyrrol-1-yl-imidazo[1,2-b]pyridazine-3-carboxylic acid phenylamide] | 530 nM
33 | O=C(Nc1ccccc1)c1cnc2ccc(-n3ccnc3)nn12 [Example 38, 6-Imidazol-1-yl-imidazo[1,2-b]pyridazine-3-carboxylic acid phenylamide] | 4630 nM
34 | O=C(Nc1ccccc1)c1cnc2ccc(Nc3ccccc3)nn12 [Example 39, 6-Phenylamino-imidazo[1,2-b]pyridazine-3-carboxylic acid phenylamide] | 40 nM
35 | O=C(Nc1ccccc1)c1cnc2ccc(Nc3cccnc3)nn12 [Example 41, 6-(Pyridin-3-ylamino)-imidazo[1,2-b]pyridazine-3-carboxylic acid phenyl-amide] | 60 nM
36 | CN(Cc1ccc(Cl)c(Cl)c1)c1ccc2ncc(C(=O)Nc3ccccc3)n2n1 [Example 42, 6-[(3,4-Dichloro-benzyl)-methyl-amino]-imidazo[1,2-b]pyridazine-3-carboxylic acid phenylamide] | 60 nM

From patent US20110046127A1, “Imidazopyridazines for Use as Protein Kinase Inhibitors” (priority 2007, published 2011)
